Laboratory results published in ChEMBL document CHEMBL4007445, “Design, synthesis, and biological evaluation of imidazo[1,2-b]pyridazine derivatives as mTOR inhibitors” (Eur J Med Chem, 2017).
The source made the active and inactive calls. The rule behind the calls is not given here.

Tests used:
A549 [1] = experiment: Induction of apoptosis in human A549 cells assessed as live cells at 10 uM after 48 hrs by Annexin V-FITC/propidium iodide staining based flow cytometry (reference value: 90%); type: functional
Mus musculus [2] = experiment: Toxicity in Balb/c nude mouse xenografted with human A549 cells assessed as mortality at 5 to 30 mg/kg, iv administered 7 times on day 14, 16, 18, 21, 23, 25, 28 post tumor implantation; type: organism-based; settings: in vivo
A549 [3] = experiment: Induction of apoptosis in human A549 cells assessed as late apoptotic cells at 10 uM after 48 hrs by Annexin V-FITC/propidium iodide staining based flow cytometry (reference value: 6.3%); type: functional
HEK293 = experiment: Antiproliferative activity against HEK293 cells after 72 hrs by SRB assay; type: cell-based; settings: Homo sapiens, HEK293, 72 h
[4] = biological target: PI3-kinase p110-delta/p85-alpha (Homo sapiens) (UniProt P27986+O00329); experiment: Inhibition of human PI3K p110delta/p85alpha at 10 uM using phosphatidylinositol 4,5-bisphosphate as substrate after 30 mins by HTRF assay relative to control; type: protein-complex assay
A549 [5] = experiment: Antiproliferative activity against human A549 cells after 72 hrs by SRB assay; type: functional, cell-based; settings: A549, 72 h
[6] = biological target: PI3-kinase p110-alpha/p85-alpha (Homo sapiens) (UniProt P27986+P42336); experiment: Inhibition of human PI3K p110alpha/p85alpha at 10 uM using phosphatidylinositol 4,5-bisphosphate as substrate after 30 mins by HTRF assay relative to control; type: protein-complex assay
MCF7 = experiment: Antiproliferative activity against human MCF7 cells after 72 hrs by SRB assay; type: functional, cell-based; settings: MCF7, 72 h
[7] = biological target: PI3K p110 beta/p85 alpha (Homo sapiens) (UniProt P27986+P42338); experiment: Inhibition of human PI3K p110beta/p85alpha at 10 uM using phosphatidylinositol 4,5-bisphosphate as substrate after 30 mins by HTRF assay relative to control; type: protein-complex assay
[8] = biological target: PI3-kinase p110-alpha/p85-alpha (Homo sapiens, UniProt P42336); experiment: Inhibition of human PI3K p110alpha/p85alpha using phosphatidylinositol 4,5-bisphosphate as substrate after 30 mins by HTRF assay; type: protein-complex assay
[9] = biological target: Phosphatidylinositol 4,5-bisphosphate 3-kinase catalytic subunit gamma isoform (Homo sapiens) (UniProt P48736); experiment: Inhibition of human PI3K p120gamma at 10 uM using phosphatidylinositol 4,5-bisphosphate as substrate after 30 mins by HTRF assay relative to control
[10] = biological target: T1, Serine/threonine-protein kinase mTOR (Homo sapiens, UniProt P42345); experiment: Inhibition of human N-terminal FLAG-tagged mTOR (1362-end residues) in presence of [gamma33P]ATP after 40 mins
A549 [11] = experiment: Cell cycle arrest in human A549 cells assessed as accumulation at S phase at 10 uM after 48 hrs by propidium iodide staining based flow cytometry (reference value: 45.31%); type: functional
A549 [12] = experiment: Inhibition of mTORC1 in human A549 cells assessed as reduction in S6 phosphorylation at […] residues at 5 uM up to 2 hrs by Western blot method; type: cell-based
A549 [13] = experiment: Cell cycle arrest in human A549 cells assessed as accumulation at G1 phase at 10 uM after 48 hrs by propidium iodide staining based flow cytometry (reference value: 40.21%); type: functional
A-375 = experiment: Antiproliferative activity against human A375 cells after 72 hrs by SRB assay; type: functional, cell-based; settings: A-375, 72 h
A549 [14] = experiment: Inhibition of mTORC2 in human A549 cells assessed as reduction in Akt phosphorylation at Ser-473 residue at 5 uM up to 2 hrs by Western blot method; type: cell-based
[15] = biological target: T1, Serine/threonine-protein kinase mTOR; experiment: Inhibition of mTOR in human A549 cells assessed as reduction in p70S6K phosphorylation at T389 residue after 2 hrs by HTRF method; type: cell-based
A549 [16] = experiment: Induction of apoptosis in human A549 cells assessed as necrotic cells at 10 uM after 48 hrs by Annexin V-FITC/propidium iodide staining based flow cytometry (reference value: 0.1%); type: functional
NCI-H460 = experiment: Antiproliferative activity against human NCI-H460 cells after 72 hrs by SRB assay; type: functional, cell-based; settings: NCI-H460, 72 h
[17] = Antiproliferative activity against human U87 cells after 72 hrs by SRB assay; type: functional, cell-based, U-87MG ATCC; settings: U-87 MG
A549 [18] = experiment: Induction of apoptosis in human A549 cells assessed as early apoptotic cells at 10 uM after 48 hrs by Annexin V-FITC/propidium iodide staining based flow cytometry (reference value: 3.6%); type: functional
Mus musculus [19] = experiment: Toxicity in Balb/c nude mouse xenografted with human A549 cells assessed as changes in body weight at 5 to 30 mg/kg, iv administered 7 times on day 14, 16, 18, 21, 23, 25, 28 post tumor implantation; type: organism-based; settings: in vivo
A549 [20] = experiment: Cell cycle arrest in human A549 cells assessed as accumulation at G2 phase at 10 uM after 48 hrs by propidium iodide staining based flow cytometry (reference value: 14.49%); type: functional
A549 [21] = experiment: Antitumor activity against human A549 cells xenografted in Balb/c nude mouse assessed sa tumor growth inhibition at 30 mg/kg, iv administered 7 times on day 14, 16, 18, 21, 23, 25, 28 post tumor implantation measured after 1 week relative to control; type: functional; settings: read-out: TGI

PI3-kinase p110-alpha/p85-alpha, sequence (P27986 whole entry, canonical isoform): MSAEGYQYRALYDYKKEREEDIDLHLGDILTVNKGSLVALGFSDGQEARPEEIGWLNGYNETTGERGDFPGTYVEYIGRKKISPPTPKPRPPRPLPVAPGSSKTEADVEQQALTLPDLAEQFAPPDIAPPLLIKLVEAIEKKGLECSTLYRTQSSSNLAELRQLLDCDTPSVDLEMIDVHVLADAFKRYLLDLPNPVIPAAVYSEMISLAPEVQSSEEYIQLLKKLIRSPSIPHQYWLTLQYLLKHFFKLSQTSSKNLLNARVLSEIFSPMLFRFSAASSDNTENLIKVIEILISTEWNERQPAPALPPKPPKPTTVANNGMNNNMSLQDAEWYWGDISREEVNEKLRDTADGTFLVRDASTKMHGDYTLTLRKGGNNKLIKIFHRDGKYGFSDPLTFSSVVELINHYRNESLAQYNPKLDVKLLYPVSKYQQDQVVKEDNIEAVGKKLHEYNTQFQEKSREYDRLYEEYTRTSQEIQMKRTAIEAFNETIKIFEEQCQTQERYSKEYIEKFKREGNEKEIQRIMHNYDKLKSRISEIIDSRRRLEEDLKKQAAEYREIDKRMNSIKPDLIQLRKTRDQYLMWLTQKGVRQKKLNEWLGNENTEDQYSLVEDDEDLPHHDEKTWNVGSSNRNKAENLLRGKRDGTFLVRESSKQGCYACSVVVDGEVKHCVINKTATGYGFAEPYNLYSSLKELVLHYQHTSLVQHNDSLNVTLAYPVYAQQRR
PI3-kinase p110-alpha/p85-alpha, sequence (P42336 whole entry, canonical isoform): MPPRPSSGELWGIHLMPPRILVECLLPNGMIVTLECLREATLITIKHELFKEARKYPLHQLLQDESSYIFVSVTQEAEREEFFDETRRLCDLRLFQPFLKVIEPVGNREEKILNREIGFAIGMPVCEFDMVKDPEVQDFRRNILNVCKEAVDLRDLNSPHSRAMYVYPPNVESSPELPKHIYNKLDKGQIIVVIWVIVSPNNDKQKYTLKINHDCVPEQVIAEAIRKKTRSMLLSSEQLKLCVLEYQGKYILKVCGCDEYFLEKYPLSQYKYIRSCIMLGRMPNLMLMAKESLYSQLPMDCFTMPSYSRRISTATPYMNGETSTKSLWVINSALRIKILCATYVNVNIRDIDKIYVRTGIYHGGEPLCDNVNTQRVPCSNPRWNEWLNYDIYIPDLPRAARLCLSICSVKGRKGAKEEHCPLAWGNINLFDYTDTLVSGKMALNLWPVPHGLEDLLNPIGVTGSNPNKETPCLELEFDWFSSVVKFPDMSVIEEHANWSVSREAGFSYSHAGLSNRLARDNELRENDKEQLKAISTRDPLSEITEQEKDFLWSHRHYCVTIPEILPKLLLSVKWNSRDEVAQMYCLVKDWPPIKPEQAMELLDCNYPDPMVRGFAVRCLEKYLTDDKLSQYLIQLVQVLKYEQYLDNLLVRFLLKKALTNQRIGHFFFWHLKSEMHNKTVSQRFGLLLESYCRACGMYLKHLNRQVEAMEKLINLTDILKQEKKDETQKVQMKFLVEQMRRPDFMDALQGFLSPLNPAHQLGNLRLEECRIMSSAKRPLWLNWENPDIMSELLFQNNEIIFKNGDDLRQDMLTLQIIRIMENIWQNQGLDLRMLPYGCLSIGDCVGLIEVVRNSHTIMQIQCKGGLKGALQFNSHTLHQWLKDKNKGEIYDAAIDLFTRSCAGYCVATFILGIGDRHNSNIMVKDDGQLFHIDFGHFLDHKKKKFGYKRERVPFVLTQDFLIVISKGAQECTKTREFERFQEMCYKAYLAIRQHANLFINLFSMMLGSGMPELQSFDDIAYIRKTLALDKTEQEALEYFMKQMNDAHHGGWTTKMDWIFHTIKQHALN
PI3K p110 beta/p85 alpha (Homo sapiens), sequence (P27986 2-724 limits assumed): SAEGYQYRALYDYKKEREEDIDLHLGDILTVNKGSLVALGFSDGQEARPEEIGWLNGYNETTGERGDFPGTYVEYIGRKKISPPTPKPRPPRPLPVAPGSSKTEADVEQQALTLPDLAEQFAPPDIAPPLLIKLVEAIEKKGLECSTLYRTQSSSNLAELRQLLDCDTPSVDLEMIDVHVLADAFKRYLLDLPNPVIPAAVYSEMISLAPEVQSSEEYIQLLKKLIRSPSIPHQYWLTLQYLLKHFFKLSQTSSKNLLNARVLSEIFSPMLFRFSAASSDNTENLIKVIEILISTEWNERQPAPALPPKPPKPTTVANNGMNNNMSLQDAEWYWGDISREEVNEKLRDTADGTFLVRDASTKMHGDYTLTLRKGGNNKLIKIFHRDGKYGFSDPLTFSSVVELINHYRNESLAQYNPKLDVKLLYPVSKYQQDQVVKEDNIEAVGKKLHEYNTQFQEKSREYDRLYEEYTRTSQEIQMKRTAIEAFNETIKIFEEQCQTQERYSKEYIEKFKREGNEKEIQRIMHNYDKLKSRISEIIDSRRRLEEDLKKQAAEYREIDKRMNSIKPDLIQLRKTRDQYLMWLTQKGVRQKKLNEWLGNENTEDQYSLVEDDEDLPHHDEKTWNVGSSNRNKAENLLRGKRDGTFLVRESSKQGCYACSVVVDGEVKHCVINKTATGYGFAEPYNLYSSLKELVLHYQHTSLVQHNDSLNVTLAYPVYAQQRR
PI3K p110 beta/p85 alpha (Homo sapiens), sequence (P42338 whole entry partner): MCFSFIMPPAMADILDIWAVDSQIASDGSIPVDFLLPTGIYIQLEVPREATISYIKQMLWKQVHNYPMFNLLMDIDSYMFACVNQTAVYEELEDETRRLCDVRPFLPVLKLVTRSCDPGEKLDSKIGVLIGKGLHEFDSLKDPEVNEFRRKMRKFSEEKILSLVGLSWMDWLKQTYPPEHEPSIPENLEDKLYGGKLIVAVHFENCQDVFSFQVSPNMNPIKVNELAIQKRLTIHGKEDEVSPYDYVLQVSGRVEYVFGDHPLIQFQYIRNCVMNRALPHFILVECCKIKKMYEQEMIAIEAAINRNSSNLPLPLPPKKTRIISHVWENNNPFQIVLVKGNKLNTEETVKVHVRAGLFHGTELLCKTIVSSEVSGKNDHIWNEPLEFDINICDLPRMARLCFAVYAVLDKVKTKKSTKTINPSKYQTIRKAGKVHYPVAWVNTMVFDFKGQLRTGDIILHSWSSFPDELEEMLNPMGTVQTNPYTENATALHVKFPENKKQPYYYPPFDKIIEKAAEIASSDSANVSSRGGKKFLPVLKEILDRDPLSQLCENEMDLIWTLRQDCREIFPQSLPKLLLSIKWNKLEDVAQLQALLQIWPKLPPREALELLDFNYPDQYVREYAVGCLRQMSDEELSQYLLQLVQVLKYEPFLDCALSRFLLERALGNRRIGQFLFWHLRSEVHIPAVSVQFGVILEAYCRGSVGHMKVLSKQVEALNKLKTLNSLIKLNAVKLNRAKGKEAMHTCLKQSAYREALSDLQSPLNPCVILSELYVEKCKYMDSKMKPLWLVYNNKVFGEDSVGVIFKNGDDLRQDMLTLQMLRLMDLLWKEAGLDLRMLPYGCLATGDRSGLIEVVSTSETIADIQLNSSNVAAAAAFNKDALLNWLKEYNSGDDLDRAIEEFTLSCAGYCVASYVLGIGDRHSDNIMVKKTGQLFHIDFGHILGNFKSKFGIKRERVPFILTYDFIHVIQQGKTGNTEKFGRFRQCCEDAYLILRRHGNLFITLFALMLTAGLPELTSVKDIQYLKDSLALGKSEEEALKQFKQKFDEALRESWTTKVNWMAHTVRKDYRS
Phosphatidylinositol 4,5-bisphosphate 3-kinase catalytic subunit gamma isoform (Homo sapiens), sequence (P48736 whole entry, looked up, canonical isoform): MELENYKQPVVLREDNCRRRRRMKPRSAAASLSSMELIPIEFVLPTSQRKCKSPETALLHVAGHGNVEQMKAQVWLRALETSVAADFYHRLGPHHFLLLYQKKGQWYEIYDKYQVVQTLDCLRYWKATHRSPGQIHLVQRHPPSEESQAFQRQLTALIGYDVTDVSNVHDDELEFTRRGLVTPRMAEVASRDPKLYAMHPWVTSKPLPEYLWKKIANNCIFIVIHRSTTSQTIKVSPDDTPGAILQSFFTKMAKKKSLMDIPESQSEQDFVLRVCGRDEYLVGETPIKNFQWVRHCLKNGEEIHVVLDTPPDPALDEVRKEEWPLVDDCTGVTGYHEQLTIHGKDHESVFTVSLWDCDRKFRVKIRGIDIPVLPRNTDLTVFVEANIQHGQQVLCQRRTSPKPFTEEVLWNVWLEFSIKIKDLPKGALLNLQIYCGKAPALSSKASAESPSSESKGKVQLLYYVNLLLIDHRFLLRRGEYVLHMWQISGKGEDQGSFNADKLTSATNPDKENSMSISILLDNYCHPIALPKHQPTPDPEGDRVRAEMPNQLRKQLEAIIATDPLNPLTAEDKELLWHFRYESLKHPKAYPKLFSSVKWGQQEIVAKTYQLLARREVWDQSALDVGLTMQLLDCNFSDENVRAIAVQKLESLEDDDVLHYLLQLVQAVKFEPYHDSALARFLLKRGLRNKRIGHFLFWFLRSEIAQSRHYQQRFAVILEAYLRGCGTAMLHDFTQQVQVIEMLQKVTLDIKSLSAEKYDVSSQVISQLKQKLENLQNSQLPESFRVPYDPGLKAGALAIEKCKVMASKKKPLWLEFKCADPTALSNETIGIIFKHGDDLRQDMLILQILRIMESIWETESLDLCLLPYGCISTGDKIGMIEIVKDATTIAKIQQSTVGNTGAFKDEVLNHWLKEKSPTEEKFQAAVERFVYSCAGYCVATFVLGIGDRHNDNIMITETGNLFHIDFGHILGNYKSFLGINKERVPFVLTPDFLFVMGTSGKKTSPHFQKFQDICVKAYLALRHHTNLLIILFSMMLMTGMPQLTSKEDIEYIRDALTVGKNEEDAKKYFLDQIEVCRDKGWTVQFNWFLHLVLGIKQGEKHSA

Structure (SMILES)	Activity (A549 [1]) [%]	Activity (A549 [3]) [%]	IC50 (HEK293) [µM]	inhibition [4] [%]	IC50 (A549 [5]) [µM]	inhibition [6] [%]	IC50 (MCF7) [µM]	inhibition [7] [%]	IC50 [8] [µM]	inhibition [9] [%]	IC50 [10] [µM]	Activity (A549 [11]) [%]	inhibition (A549 [12])	Activity (A549 [13]) [%]	IC50 (A-375) [µM]	inhibition (A549 [14])	inhibition [15]	Activity (A549 [16]) [%]	IC50 (NCI-H460) [µM]	IC50 [17] [µM]	also measured
C[C@H]1COCCN1c1cc(-c2ccc(NC(=O)Nc3cccnc3)cc2)nn2ccnc12	87.8	8.8	9	19	0.05	59	40	24	4.42	40	0.067	33.07	Active	55.32	11.3	Active	Dose-dependent effect	0	0.47	13.5	Activity (Mus musculus [2]): Non-Toxic; Activity (A549 [18]): 3.5%; Activity (Mus musculus [19]): Non-Toxic; Activity (A549 [20]): 7.61%; inhibition in vivo at 30 mg/kg (A549 [21]): 37.8%
C[C@H]1COCCN1c1cc(-c2ccc(NC(=O)Nc3ccncc3)cc2)nn2ccnc12	89.9	6.3	5.2	29	0.02	64	13.1	33	3.11	39	0.062	35.19	Active	50.95	5.8	Active	Dose-dependent effect	0	0.67	7.4	Activity (A549 [18]): 3.7%; Activity (A549 [20]): 13.86%
